{
  "source": "ChEMBL document CHEMBL6153029",
  "about": "“Next-generation cancer therapeutics: PROTACs and the role of heterocyclic warheads in targeting resistance” (Eur J Med Chem, 2025)",
  "key": {"[1]": {"molecular_target": "Platelet-derived growth factor receptor beta (Homo sapiens) (UniProt P09619)", "sequence (P09619 whole entry)": "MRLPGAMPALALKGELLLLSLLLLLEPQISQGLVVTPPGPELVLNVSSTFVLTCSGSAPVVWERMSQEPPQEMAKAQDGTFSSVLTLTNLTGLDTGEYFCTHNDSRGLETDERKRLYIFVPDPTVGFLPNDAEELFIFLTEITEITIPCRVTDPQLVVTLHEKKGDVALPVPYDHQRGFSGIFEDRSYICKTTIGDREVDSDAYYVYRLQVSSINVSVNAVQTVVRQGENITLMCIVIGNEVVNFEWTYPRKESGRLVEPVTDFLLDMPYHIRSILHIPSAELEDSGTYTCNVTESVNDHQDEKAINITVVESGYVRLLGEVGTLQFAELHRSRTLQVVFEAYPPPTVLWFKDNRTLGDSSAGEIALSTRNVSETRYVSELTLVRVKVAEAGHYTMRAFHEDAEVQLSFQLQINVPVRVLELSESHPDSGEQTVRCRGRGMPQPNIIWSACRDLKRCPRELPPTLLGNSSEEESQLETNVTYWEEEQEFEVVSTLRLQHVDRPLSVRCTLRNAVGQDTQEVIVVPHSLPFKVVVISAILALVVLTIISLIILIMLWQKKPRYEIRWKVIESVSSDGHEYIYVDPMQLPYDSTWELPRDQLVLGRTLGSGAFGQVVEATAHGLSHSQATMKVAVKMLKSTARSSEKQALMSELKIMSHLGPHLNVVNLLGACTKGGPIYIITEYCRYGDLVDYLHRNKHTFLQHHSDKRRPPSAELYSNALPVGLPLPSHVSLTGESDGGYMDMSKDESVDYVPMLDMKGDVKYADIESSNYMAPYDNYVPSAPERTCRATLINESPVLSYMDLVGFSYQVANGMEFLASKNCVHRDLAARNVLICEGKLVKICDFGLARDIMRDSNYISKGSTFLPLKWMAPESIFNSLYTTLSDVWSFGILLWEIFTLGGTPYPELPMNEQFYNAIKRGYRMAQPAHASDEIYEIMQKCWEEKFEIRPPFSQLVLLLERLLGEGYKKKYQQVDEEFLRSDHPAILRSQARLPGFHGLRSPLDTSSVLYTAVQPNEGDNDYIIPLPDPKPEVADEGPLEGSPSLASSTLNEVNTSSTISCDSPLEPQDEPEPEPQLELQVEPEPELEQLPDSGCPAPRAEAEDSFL", "assay": "Inhibition of PDGFRbeta (unknown origin) measured for 48 hrs at 10 uM relative to control"}, "[2]": {"molecular_target": "von Hippel-Lindau disease tumor suppressor/Platelet-derived growth factor receptor beta (Homo sapiens, UniProt P09619+P40337)", "sequence (P09619 whole entry)": "as above", "sequence (P40337 whole entry)": "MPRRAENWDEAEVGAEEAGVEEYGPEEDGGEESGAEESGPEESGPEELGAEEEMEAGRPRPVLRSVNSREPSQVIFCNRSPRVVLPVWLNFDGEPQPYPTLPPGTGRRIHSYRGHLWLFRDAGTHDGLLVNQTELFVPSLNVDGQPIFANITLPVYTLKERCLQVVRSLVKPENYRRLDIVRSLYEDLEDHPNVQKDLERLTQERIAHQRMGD", "assay": "PROTAC activity at VHL/PDGFRbeta in human U87 cells assessed as induction of protein degradation by Western blot analysis", "assay_type": "cell-based"}, "[3]": {"system": "U-87 MG", "assay": "Antiproliferative activity against human U87 cells", "assay_type": "functional, cell-based, U-87MG ATCC"}, "[4]": {"molecular_target": "T1, Protein cereblon/Mitogen-activated protein kinase 3/Mitogen-activated protein kinase 1 (Homo sapiens, UniProt P27361+P28482+Q96SW2)", "T1 sequence (P27361 whole entry)": "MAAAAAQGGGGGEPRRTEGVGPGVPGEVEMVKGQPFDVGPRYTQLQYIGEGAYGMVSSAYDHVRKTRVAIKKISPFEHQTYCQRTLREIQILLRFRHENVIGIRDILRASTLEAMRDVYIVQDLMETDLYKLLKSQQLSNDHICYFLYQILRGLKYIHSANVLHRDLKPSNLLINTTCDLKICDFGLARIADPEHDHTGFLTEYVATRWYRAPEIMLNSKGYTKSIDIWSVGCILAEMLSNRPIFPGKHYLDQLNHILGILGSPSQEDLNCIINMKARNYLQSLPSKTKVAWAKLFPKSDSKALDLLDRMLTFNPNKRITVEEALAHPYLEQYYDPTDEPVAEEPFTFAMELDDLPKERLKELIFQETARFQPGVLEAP", "T1 sequence (P28482 whole entry)": "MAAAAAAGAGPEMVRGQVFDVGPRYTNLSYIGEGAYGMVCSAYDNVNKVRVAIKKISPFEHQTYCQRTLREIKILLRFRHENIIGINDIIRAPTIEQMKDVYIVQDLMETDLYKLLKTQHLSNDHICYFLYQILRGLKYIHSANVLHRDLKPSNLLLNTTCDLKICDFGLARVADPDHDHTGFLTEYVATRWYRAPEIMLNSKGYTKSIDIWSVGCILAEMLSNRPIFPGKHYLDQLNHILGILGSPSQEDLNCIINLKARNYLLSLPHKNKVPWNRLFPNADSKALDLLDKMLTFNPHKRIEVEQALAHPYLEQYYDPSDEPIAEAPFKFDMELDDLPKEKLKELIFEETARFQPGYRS", "T1 sequence (Q96SW2 whole entry)": "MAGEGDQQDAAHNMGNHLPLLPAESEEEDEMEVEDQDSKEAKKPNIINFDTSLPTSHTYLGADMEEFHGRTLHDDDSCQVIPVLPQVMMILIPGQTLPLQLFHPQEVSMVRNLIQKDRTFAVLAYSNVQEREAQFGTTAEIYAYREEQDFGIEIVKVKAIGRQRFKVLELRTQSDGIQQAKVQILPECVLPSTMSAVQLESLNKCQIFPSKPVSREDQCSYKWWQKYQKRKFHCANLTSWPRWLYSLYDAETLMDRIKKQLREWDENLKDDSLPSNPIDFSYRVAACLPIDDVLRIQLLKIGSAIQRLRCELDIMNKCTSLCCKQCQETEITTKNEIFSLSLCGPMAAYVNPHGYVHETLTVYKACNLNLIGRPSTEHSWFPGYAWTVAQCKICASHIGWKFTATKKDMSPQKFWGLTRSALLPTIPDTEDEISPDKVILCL", "assay": "PROTAC activity at CRBN/ERK1/2 in human HCT-116 cells assessed as induction of ERK1/2 degradation incubated for 48 hrs by Western blot analysis", "assay_type": "cell-based"}, "[5]": {"molecular_target": "T1, Protein cereblon/Mitogen-activated protein kinase 3/Mitogen-activated protein kinase 1", "assay": "PROTAC activity at CRBN/ERK1/2 in human Calu-6 cells assessed as induction of ERK1/2 degradation incubated for 48 hrs by Western blot analysis", "assay_type": "cell-based"}, "[6]": {"system": "Calu-6", "assay": "Antiproliferative activity against human Calu-6 cells assessed as reduction in cell viability incubated for 72 hrs by CCK-8 assay", "assay_type": "functional, cell-based", "conditions": "Calu-6, 72 h"}, "[7]": {"system": "HCT-116", "assay": "Antiproliferative activity against human HCT-116 cells assessed as reduction in cell viability incubated for 72 hrs by CCK-8 assay", "assay_type": "functional, cell-based", "conditions": "HCT-116, 72 h"}, "[8]": {"system": "A-375", "assay": "Antiproliferative activity against human A-375 cells assessed as reduction in cell viability incubated for 72 hrs by CCK-8 assay", "assay_type": "functional, cell-based", "conditions": "A-375, 72 h"}, "[9]": {"assay": "PROTAC activity at VHL/human p38alpha in MDA-MB-231 cells assessed as p38alpha degradation", "assay_type": "cell-based"}, "[10]": {"molecular_target": "T2, Glucose-induced degradation protein 4 homolog/EML4-ALK (Homo sapiens, UniProt Q9UM73+Q9HC35+Q8IVV7)", "assay": "PROTAC activity at GID4/EML4-ALK in human NCI-H3122 cells assessed as maximal protein degradation at 1 uM measured for 48 hrs by immunoblot analysis relative to control", "assay_type": "cell-based"}, "[11]": {"molecular_target": "T3, Protein cereblon/ALK tyrosine kinase receptor/Nucleophosmin (Homo sapiens, UniProt Q9UM73+P06748+Q96SW2)", "assay": "PROTAC activity at CRBN/NPM/ALK in human KARPAS-299 cells assessed as maximal degradation of protein at 1 uM incubated for 48 hrs by Western blotting analysis relative to control", "assay_type": "cell-based"}, "[12]": {"molecular_target": "T3, Protein cereblon/ALK tyrosine kinase receptor/Nucleophosmin", "assay": "PROTAC activity at CRBN/NPM/ALK in human KARPAS-299 cells incubated for 48 hrs by Western blotting analysis", "assay_type": "cell-based"}, "[13]": {"molecular_target": "T2, Glucose-induced degradation protein 4 homolog/EML4-ALK", "assay": "PROTAC activity at GID4/EML4-ALK in human NCI-H3122 cells assessed as protein degradation at 1 uM measured for 48 hrs by immunoblot analysis", "assay_type": "cell-based"}, "[14]": {"system": "Hs-578T", "assay": "Antiproliferative activity against human Hs-578T cells", "assay_type": "functional, cell-based"}, "[15]": {"molecular_target": "T4, Bromodomain-containing protein 4 (Homo sapiens, UniProt O60885)", "assay": "Binding affinity to BRD4 (unknown origin) assessed as dissociation constant"}, "[16]": {"system": "MOLM-13", "assay": "Antiproliferative activity against human MOLM-13 cells", "assay_type": "functional, cell-based"}, "[17]": {"system": "MV4-11", "assay": "Antiproliferative activity against human MV4-11 cells", "assay_type": "functional, cell-based"}, "[18]": {"system": "LNCaP C4-2B", "assay": "Antiproliferative activity against human LNCaP C4-2B cells", "assay_type": "functional, cell-based"}, "[19]": {"system": "CWR22R", "assay": "Antiproliferative activity against human 22Rv1 cells", "assay_type": "functional, cell-based"}, "[20]": {"system": "LNCaP", "assay": "Antiproliferative activity against human LNCaP cells", "assay_type": "functional, cell-based"}, "[21]": {"system": "MDA-MB-231", "assay": "Induction of cell cycle arrest in human MDA-MB-231 cells assessed as G0/G1 phase arrest at 12.3 to 1000 nM incubated for 24 hrs by PI staining based flow cytometry analysis", "assay_type": "functional", "conditions": "dose 12.3-1000 nM"}, "[22]": {"system": "MDA-MB-231", "assay": "Antiproliferative activity against human MDA-MB-231 cells"}, "[23]": {"system": "Pfeiffer", "assay": "Antiproliferative activity against human Pfeiffer cells"}, "[24]": {"system": "MCF7", "assay": "Antiproliferative activity against human MCF7 cells"}, "[25]": {"system": "T47D", "assay": "Antiproliferative activity against human T47D cells"}, "[26]": {"system": "Pfeiffer", "assay": "Induction of cell cycle arrest in human Pfeiffer cells assessed as G0/G1 phase arrest at 100 nM incubated for 24 hrs by PI staining based flow cytometry analysis", "assay_type": "functional"}, "[27]": {"system": "MDA-MB-468", "assay": "Antiproliferative activity against human MDA-MB-468 cells"}, "[28]": {"assay": "Intrinsic clearance in mouse liver microsomes", "assay_type": "ADME, Microsome", "conditions": "read-out: CLH"}, "[29]": {"assay": "Half life in mouse", "assay_type": "ADME, organism-based", "conditions": "in vivo"}, "[30]": {"molecular_target": "T4, Bromodomain-containing protein 4", "assay": "Inhibition of BRD4 (unknown origin)"}},
  "note": "pIC50, pKd: −log10 of the molar value.",
  "data": [
    {"smiles": "Cc1ncsc1-c1ccc(CNC(=O)[C@@H]2C[C@@H](O)CN2C(=O)[C@@H](NCCCCNC(=O)CNC(=O)c2cc(Oc3ccc(NC(=O)Nc4ccc(Cl)c(C(F)(F)F)c4)cc3)ccn2)C(C)(C)C)cc1", "values": [
      {"measurement": "inhibition", "setting": "[1]", "value": "> 70", "unit": "%"}
    ]},
    {"smiles": "Cc1cccc(NC(=O)Nc2ccc(-c3cccc4c3c(N)nn4C(=O)CCCNC(=O)C3CC4CC3c3c4cnnc3-c3ccc(NC(=O)CCC(=O)N[C@H](C(=O)N4C[C@H](O)C[C@H]4C(=O)NCc4ccc(-c5scnc5C)cc4)C(C)(C)C)cc3)cc2)c1F", "note": "(some centres not stated)", "values": [
      {"measurement": "DC50", "setting": "[2]", "value": 0.257, "unit": "µM"},
      {"measurement": "pIC50", "setting": "[3]", "value": "< 4.00"}
    ]},
    {"smiles": "Cc1cccc(CN2C(=O)c3cc(-c4nc(Nc5ccnc(C#CCCN(C)C)c5)ncc4C)cn3C[C@H]2C)n1", "values": [
      {"measurement": "DC50", "setting": "[4]", "value": 0.102, "unit": "µM"},
      {"measurement": "DC50", "setting": "[5]", "value": 0.085, "unit": "µM"},
      {"measurement": "pIC50", "setting": "[6]", "value": 4.80},
      {"measurement": "pIC50", "setting": "[7]", "value": 5.68},
      {"measurement": "pIC50", "setting": "[8]", "value": "< 4.52"}
    ]},
    {"smiles": "Cc1ccc(C(=O)NCCCc2cn(CCCC(=O)NCCCCCC(=O)N[C@H](C(=O)N3C[C@H](O)C[C@H]3C(=O)N[C@@H](C)c3ccc(-c4scnc4C)cc3)C(C)(C)C)nn2)cc1-n1c(C)cc(OCc2ccc(F)cc2F)c(Br)c1=O", "values": [
      {"measurement": "DC50", "setting": "[9]", "value": 0.0116, "unit": "µM"}
    ]},
    {"smiles": "COc1cc(N2CCN(C(=O)CNc3cccc4c3C(=O)N(C3CCC(=O)NC3=O)C4=O)CC2)ccc1Nc1ncc(Cl)c(Nc2ccccc2S(=O)(=O)C(C)C)n1", "note": "(configuration not stated)", "values": [
      {"measurement": "Emax", "setting": "[10]", "value": 81.3, "unit": "%"},
      {"measurement": "Emax", "setting": "[11]", "value": 92.3, "unit": "%"},
      {"measurement": "DC50", "setting": "[12]", "value": 0.0046, "unit": "µM"},
      {"measurement": "DC50", "setting": "[13]", "value": 0.358, "unit": "µM"}
    ]},
    {"smiles": "COc1ccc(Br)cc1S(=O)(=O)Nc1cc2c(C)noc2cc1OCCOCCOCCOCCOCCOCCOc1cc2onc(C)c2cc1NS(=O)(=O)c1cc(Br)ccc1OC", "values": [
      {"measurement": "pIC50", "setting": "[14]", "value": 5.87},
      {"measurement": "pKd", "setting": "[15]", "value": 6.13},
      {"measurement": "pIC50", "setting": "[16]", "value": 6.35},
      {"measurement": "pIC50", "setting": "[17]", "value": 6.35},
      {"measurement": "pIC50", "setting": "[18]", "value": 6.03},
      {"measurement": "pIC50", "setting": "[19]", "value": 6.05},
      {"measurement": "pIC50", "setting": "[20]", "value": 6.28}
    ]},
    {"smiles": "COc1cc(C)[nH]c(=O)c1CNC(=O)c1cccc2c1c(C)cn2[C@H](C)C1CCN(CCCCCCCCCC(=O)N[C@H](C(=O)N2C[C@H](O)C[C@H]2C(=O)NCc2ccc(-c3scnc3C)cc2)C(C)(C)C)CC1", "values": [
      {"measurement": "Activity", "setting": "[21]", "value": 68.38, "unit": "%"},
      {"measurement": "pIC50", "setting": "[22]", "value": 5.35},
      {"measurement": "pIC50", "setting": "[23]", "value": 5.69},
      {"measurement": "pIC50", "setting": "[24]", "value": 5.38},
      {"measurement": "pIC50", "setting": "[25]", "value": 5.16},
      {"measurement": "Activity", "setting": "[26]", "value": 11.74, "unit": "%"},
      {"measurement": "pIC50", "setting": "[27]", "value": 5.85},
      {"measurement": "CLint scaled", "setting": "[28]", "value": 8.99, "unit": "L/h/kg"},
      {"measurement": "half-life", "setting": "[29]", "value": 1.07, "unit": "h"}
    ]},
    {"smiles": "Nc1nc(NC2CCC(C#Cc3ccc(C(=O)Nc4ccc5c(c4)CN(C4CCC(=O)NC4=O)C5=O)cc3)CC2)sc1C(=O)c1ccccc1[N+](=O)[O-]", "note": "(configuration not stated)", "values": [
      {"measurement": "pIC50", "setting": "[24]", "value": 7.54},
      {"measurement": "pIC50", "setting": "[25]", "value": 7.38}
    ]},
    {"smiles": "CCS(=O)(=O)Nc1ccc(Oc2ccc(F)cc2F)c(-c2cn(C)c(=O)c3[nH]ccc23)c1", "note": "[MIVEBRESIB]", "values": [
      {"measurement": "pIC50", "setting": "[30]", "value": 8.59}
    ]}
  ]
}
